The source of these data is patent US20060229255A1, “Identification of n-alkylglycine trimers for induction of apoptosis” (priority 2003, published 2006).

Common to all, as to format: cell-based, human
Assay [1] relates to T98 g cells. The experiment in a line: Cell cycle DNA analysis in synchronized cells. To be noted: for Cells retained in G1: 19 h after serum re-addition, 100 μM. The method, then:
Experimentally this finding was substantiated analysing the compounds in a cellular model with synchronized cells. T98 g cells were arrested in G1 phase (82%) by serum starvation in MCDB 105 medium after 72 h. Upon 10% serum re-addition, cells were allowed to re-enter into the cell cycle. More than 50% of the cells were in the S-phase, and only 20% remained in G1 after 19 h of FCS introduction. Addition of N10-13-10C or N13-13-10C to the cultures at the moment of serum addition restrained S-phase entry (FIG. 7. A). Around 40% of the cells were retained in G1. In conclusions both N10-13-10C and N13-13-10C were able to induce a G1 arrest either in asynchronous or in synchronized cell cultures, as determined by cell cycle DNA analysis. In comparison, Olomucine which is a cdk2 inhibitor, retained 80% of the cells in G1. The topoisomerase II inhibitor etoposide treated cells were arrested in S phase of the cell cycle (85% of the cell population).
DNA analysis. Floating and adherent cells treated with the compounds were collected by trypsinization and washed twice with PBS. The cells were permeabilized overnight at −20° C. with ice-cold ethanol 70%. The cells were washed in PBS, adjusted at 0.5×10^6 cells/ml and incubated with 20 μg/ml Propidium Iodide and 2 μl/ml RNase DNase-free for 30 min at 30° C. Cells were maintained overnight at 4° C. and then analysed by flow cytometry. Flow cytometric experiments were carried out using an Epics XL flow cytometer (Coulter Corporation, Hialeah, Fla.). The instrumet was set up with the standard configuration: excitation of the sample was done using an standard 488 nm air-cooled argon-ion laser at 15 mW power. Forward scatter (FSC), side scatter (SSC) and red (620 nm) fluorescence for PI were adquired. Optical alignement was based on optimized signal from […] fluorescent beads (Immunocheck, Epics Division). Time was used as a control of the stability of the instrument. Red fluorescence was projected on a 1024 monoparametrical histogram. Aggregates were excluded gating single cells by their area vs. peak fluorescence signal. DNA analysis (Ploidy analysis) on single fluorescence histograms was done using Multicycle software (Phoenix Flow Systems, San Diego, Calif.).
(§1) FIG. 7. […] (A) T98 g cells were synchronized and reinitiated for 19 h with FCS alone or in combination with N10-13-10C (100 μM), N13-13-10C (100 μM), Olomucine (100 μM), etoposide (5 μM) or Taxol (30 nM). Cell cycle profile was assessed by propidium iodide DNA staining and analyzed by flow cytometry. The fraction of cells with G1, S, G2/M DNA content are shown as % of total cell population. (B. and C.) Synchronized T98 g cells were reinitiated with FCS alone or in combination with serial dilutions of N4-13-10C, N5-13-10C, N10-13-10C, N13-13-10C, Olomucine or etoposide for 19 h and labeled with BrdU during the last 2 h. BrdU incorporation was assessed by ELISA using anti-BrdU antibodies. An arbitrary value of 100% was assigned to the densiometric rate of DNA synthesis by untreated cultures and all other values are depicted relative to that reference. The values are means of three (n=3) replicates.

For assay [2], the system named is T98g glioblastoma cells. Description: BrdU incorporation assay (DNA synthesis). The conditions noted are these: synchronized T98 g, 17 h + 2 h BrdU, read-out: IC50 BrdU incorporation (DNA synthesis inhibition). How it is done: To confirm the G1 arrest of the cell cycle, we analyzed the DNA synthesis by an BrdU incorporation assay. Serial dilutions of the compounds N4-13-10C, N5-13-10C, N10-13-10C, N13-13-10C, etoposide or olomucine were assayed on synchronized T98 g cells as described in FIG. 7. A. Arrested cells were induced to cell cycle re-entry by re-addition of serum alone or with test compounds for 17 h, followed by 2 h in combination with 10 μM BrdU.
BrdU assay. T98g glioblastoma cells at 5000 cells/well in microtiter plates were arrested in G1-phase for 72 h by serum deprivation in MCDB 105 medium. By serum (10%) readdition, cells were treated with serial dilutions of the compounds for 17 h, and followed in combination 10 μM BrdU for […]. BrdU incorporation, i.e. DNA synthesis, was quantified with Cell Proliferation ELISA system, vs. 2 (AmershamPharmacia biotech) as described by the manufacturer.
as §1

Assay [3] has as its system Bcl-xL. The experiment in a line: Western blot of Bcl-xL phosphorylation. To be noted: HT29 cells, 3, 6 and 24 h. How it is done: Western blotting. Floating and adherent cells were harvested and pellets were resuspended in RIPA buffer (50 mM Tris/HCl 7.4, 250 mM NaCl, 0,5% Igepal CA630, 5 mM EDTA, 1 mM PMSF, 10 μg/ml leupeptin, 50 mM NaF, 0.1 mM Na3VO4) or Deoxycholate buffer (10 mM phosphate buffer 7.4, […] NaCl, 0.5% Deoxycholate, 1% Igepal, 0.1% SDS, 1 mM PMSF). Protein concentration was determined with BCA Protein Assay Kit (Pierce) for RIPA extracts or Bradford assay (BioRad) for Deoxycholate extracts. Total protein (20-30 μg/lane) were separated by SDS-PAGE, transferred to PVDF membranes (Gellman), and probed with antibodies against Bcl-xL (Transduction); Bax (Santa Cruz); JNK (Santa Cruz); phospho-JNK (Cell Signaling); pRb (Pharmingen); pRb-phospho Ser780 (Cell Signalling); p130 (Santa Cruz); p107 (Santa Cruz); Cdk2 (Santa Cruz); p27^Kip1 (Santa Cruz); p21^Cip1 (Santa Cruz); actin (Sigma); or tubulin (ICN) and developed with ECL system (AmershamPharmacia biotech)
FIG. 6. (A) JNK is activated after N13-13-10C treatment. HT29 cells were treated for 1, 3, 6 and 24 h with N13-13-10C (35 μM), harvested and immunoblotted to assess activation of SAP/JNK MAP kinase. Western blot was first probed with the JNK-phosphor specific antibody, was stripped and reprobed with the pan-JNK antibody and actin to normalize total protein level. […]
Background: A western blot detects proteins with antibodies after separation by electrophoresis.

Like-named read-outs stand apart in the source and are kept apart here.

Consider `COc1cc([C@@H]2c3cc4c(cc3[C@@H](O[C@@H]3O[C@@H]5CO[C@@H](C)O[C@H]5[C@H](O)[C@H]3O)[C@H]3COC(=O)[C@H]23)OCO4)cc(OC)c1O` [etoposide, reference compound], for which the “Cells arrested in S phase” value in assay [1] (19 h, etoposide 5 μM) is given as 85%. Besides, the IC50 in assay [2] (Homo sapiens, T98G) was 200 µM.
Turning to `Cn1cnc2c(NCc3ccccc3)nc(NCCO)nc21` [Olomucine], the “Cells retained in G1” value in assay [1] turned out to be 80%; in assay [1] (listed as olomucine) it was 82%. Besides, in assay [2], the IC50 was determined as 50 µM.
Regarding `CC(=O)O[C@H]1C(=O)[C@@]2(C)[C@H]([C@H](OC(=O)c3ccccc3)[C@]3(O)C[C@H](OC(=O)[C@H](O)[C@@H](NC(=O)c4ccccc4)c4ccccc4)C(C)=C1C3(C)C)[C@]1(OC(C)=O)CO[C@@H]1C[C@@H]2O` [Taxol, reference compound], the “Effect on cell cycle profile” value in assay [1] (19 h of treatment, Taxol 30 nM) is “does not effect cell cycle profile”. In assay [3], the “Bcl-xL phosphorylation (slower migrating band)” value is “phosphorylated bcl-xL”.
